Test results taken from publication PMC8467962, “Design and Synthesis of Water-Soluble and Potent MMP-13 Inhibitors with Activity in Human Osteosarcoma Cells” (International Journal of Molecular Sciences, 2021).
≈ marks a conversion by molar mass, not a printed value. Read-outs that look alike come from different tables or passages of the source.

What was measured:
MMP-12 = molecular target: T1, MMP-12 (Homo sapiens, UniProt P39900); set-up: method as in PMID 30629065; details: panel of MMPs; cited from earlier work
T1 construct: the catalytic domains of the corresponding MMP were incubated in triplicate; purchased Enzo Life Science International, Inc
T1 sequence (P39900 106-263 limits assumed): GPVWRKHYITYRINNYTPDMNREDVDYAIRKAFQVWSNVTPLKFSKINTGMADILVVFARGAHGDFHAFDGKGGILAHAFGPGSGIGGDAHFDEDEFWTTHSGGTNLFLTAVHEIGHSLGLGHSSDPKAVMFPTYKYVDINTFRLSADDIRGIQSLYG

MMP-3 = molecular target: T2, MMP-3 (Homo sapiens, UniProt P08254); set-up: method as in PMID 30629065; details: panel of MMPs; cited from earlier work
T2 construct: the catalytic domains of the corresponding MMP were incubated in triplicate; purchased Enzo Life Science International, Inc
T2 sequence (P08254 100-272 limits assumed): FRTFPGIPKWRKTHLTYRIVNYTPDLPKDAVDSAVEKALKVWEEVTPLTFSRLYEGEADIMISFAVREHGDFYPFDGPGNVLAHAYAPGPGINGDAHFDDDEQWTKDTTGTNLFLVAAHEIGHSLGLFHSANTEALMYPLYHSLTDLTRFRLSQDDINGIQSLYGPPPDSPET

MMP-7 = molecular target: T3, MMP-7 (Homo sapiens, UniProt P09237); set-up: method as in PMID 30629065; details: panel of MMPs; cited from earlier work
T3 construct: the catalytic domains of the corresponding MMP were incubated in triplicate; purchased Enzo Life Science International, Inc
T3 sequence (P09237 95-267): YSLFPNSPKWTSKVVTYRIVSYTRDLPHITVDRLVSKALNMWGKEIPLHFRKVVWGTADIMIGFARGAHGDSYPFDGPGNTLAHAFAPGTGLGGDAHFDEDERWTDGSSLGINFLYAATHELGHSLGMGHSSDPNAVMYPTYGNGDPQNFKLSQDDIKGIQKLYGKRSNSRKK

MMP-10 = molecular target: T4, MMP-10 (Homo sapiens, UniProt P09238); set-up: method as in PMID 30629065; details: panel of MMPs; cited from earlier work
T4 construct: the catalytic domains of the corresponding MMP were incubated in triplicate; purchased Enzo Life Science International, Inc
T4 sequence (P09238 99-263 limits assumed): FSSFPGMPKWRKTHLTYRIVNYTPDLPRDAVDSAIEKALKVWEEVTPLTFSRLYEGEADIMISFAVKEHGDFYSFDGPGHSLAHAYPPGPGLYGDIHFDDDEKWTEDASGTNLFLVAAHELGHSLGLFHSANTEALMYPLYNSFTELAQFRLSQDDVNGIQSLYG

MMP-2 = molecular target: T5, MMP-2 (Homo sapiens, UniProt P08253); set-up: method as in PMID 30629065; details: cited from earlier work
T5 construct: the catalytic domains of the corresponding MMP were incubated in triplicate; purchased Enzo Life Science International, Inc
T5 sequence (P08253 110-446 limits assumed): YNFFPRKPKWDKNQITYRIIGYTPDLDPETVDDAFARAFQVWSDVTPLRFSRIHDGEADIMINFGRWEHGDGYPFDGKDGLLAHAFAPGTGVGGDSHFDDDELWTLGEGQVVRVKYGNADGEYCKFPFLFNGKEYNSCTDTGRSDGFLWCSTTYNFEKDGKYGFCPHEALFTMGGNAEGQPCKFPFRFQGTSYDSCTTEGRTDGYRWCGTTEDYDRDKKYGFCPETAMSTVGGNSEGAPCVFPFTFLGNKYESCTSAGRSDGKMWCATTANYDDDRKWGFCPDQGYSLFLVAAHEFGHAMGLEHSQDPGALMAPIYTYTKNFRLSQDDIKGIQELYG

MMP-8 = molecular target: T6, MMP-8 (Homo sapiens, UniProt P22894); set-up: method as in PMID 30629065; details: panel of MMPs; cited from earlier work
T6 construct: the catalytic domains of the corresponding MMP were incubated in triplicate; purchased Enzo Life Science International, Inc
T6 sequence (P22894 100-262 limits assumed): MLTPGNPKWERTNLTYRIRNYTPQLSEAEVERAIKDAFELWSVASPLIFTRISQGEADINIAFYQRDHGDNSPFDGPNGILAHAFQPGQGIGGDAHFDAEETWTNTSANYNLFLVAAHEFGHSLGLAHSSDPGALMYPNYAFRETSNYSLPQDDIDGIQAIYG

MMP-14 = molecular target: T7, MMP-14 (Homo sapiens, UniProt P50281); set-up: method as in PMID 30629065; details: panel of MMPs; cited from earlier work
T7 construct: the catalytic domains of the corresponding MMP were incubated in triplicate; purchased Enzo Life Science International, Inc

MMP-9 = molecular target: T8, MMP-9 (Homo sapiens, UniProt P14780); set-up: method as in PMID 30629065; details: panel of MMPs; cited from earlier work
T8 construct: the catalytic domains of the corresponding MMP were incubated in triplicate; purchased Enzo Life Science International, Inc
T8 sequence (P14780 107-444 limits assumed): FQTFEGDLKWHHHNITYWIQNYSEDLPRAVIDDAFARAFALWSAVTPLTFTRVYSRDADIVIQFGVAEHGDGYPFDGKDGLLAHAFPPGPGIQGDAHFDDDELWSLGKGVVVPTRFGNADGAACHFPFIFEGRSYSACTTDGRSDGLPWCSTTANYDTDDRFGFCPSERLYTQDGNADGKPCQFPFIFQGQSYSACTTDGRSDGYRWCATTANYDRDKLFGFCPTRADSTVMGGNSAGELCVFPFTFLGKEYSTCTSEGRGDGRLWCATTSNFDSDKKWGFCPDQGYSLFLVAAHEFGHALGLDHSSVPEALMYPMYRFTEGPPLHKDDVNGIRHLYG

MMP-13 = molecular target: T9, MMP-13 (Homo sapiens, UniProt P45452); set-up: method as in PMID 30629065; details: cited from earlier work
T9 construct: the catalytic domains of the corresponding MMP were incubated in triplicate; purchased Enzo Life Science International, Inc

MMP-1 = molecular target: T10, MMP-1 (Homo sapiens, UniProt P03956); set-up: method as in PMID 30629065; details: panel of MMPs; cited from earlier work
T10 construct: the catalytic domains of the corresponding MMP were incubated in triplicate; purchased Enzo Life Science International, Inc
T10 sequence (P03956 100-269 limits assumed): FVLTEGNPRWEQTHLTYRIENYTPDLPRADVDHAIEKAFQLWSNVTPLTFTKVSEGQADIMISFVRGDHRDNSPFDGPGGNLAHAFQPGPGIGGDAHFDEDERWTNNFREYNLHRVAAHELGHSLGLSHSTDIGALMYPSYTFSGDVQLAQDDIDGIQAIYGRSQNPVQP

[1] = Thermodynamic solubility (shake flask method); format: physicochemical; details: phosphate buffer, aqueous buffer, thermodynamic from solid; PBS pH 7.4, shake flask, room temperature; read-out: Experimental Water Solubility LogS (converted)
Procedure: The samples were sonicated for 10 min and shaken overnight at 800 rpm (FB15013 TopMix, Fischer Scientific, Waltham, MA, USA) at room temperature. A first phase separation of supernatant and undissolved solid was performed by centrifugation at 5000 rpm for 20 min (Biofuge primo R). The supernatant was then transferred into Eppendorf tubes for a second centrifugation. An adequate dilution was made using the particle-free supernatant and the concentration quantified by LC-HRMS using a 4-point calibration curve (Agilent 1260 Infinity II).
PART A. Calibration curves of compounds for solubility
9e, 10a-e), 4-points calibration curves were made for each compound. Calibrations curves were obtained using four different concentrations of the corresponding compound (0.1 mg/mL, 0.01 mg/mL, 0.001 mg/mL and 0.0001 mg/mL). All samples were prepared in DMSO and measured in a LC-HRMS (Agilent 1260 Infinity II).
Figure S1. Calibration curves of all active compounds (solubility studies) (1, 2, 9a, 9e, 10a-e) […]

For O=C(NO)[C@@H](Cc1ccccc1)NS(=O)(=O)c1ccc(-n2cc(CCn3nc4c(Br)c(Br)c(Br)c(Br)c4n3)nn2)cc1 [Compound 1], the IC50 (MMP-12) is given as 17.8 nM, the IC50 (MMP-3) is given as 500 nM and the IC50 (MMP-7) is given as greater than 1000 nM. For the same compound, the IC50 (MMP-10) was 434 nM, the IC50 (MMP-2; panel of MMPs, read-out: IC50 MMP-2) was 70 nM and the IC50 (MMP-2; previous work, read-out: MMP-2 IC50) was 70 nM. For the same compound, the IC50 (MMP-8) was greater than 500 nM, the IC50 (MMP-14) was greater than 1000 nM and the IC50 (MMP-9) was greater than 500 nM. For the same compound, the IC50 (MMP-13; panel of MMPs, read-out: IC50 MMP-13) was 3.7 nM, the IC50 (MMP-13; previous work, read-out: MMP-13 IC50) was 3.7 ± 1.85 nM and the IC50 (MMP-1) was greater than 1000 nM. The solubility [1] was 2.88 µM (≈ 2.45 µg/mL).
